Experiment [1] in a line: Steady state Selectivity index for inhibition at NMDA receptor glycine site was estimated by dividing Kb (AMPA) by Kb (NMDA).
Experiment [2] can be described thus: Functional antagonism of NR1a/2C N-methyl-D-aspartate glutamate receptor of rat membrane expressed in Xenopus oocytes. The settings on record: Oocyte.
Experiment [3] addresses Glutamate receptor ionotropic, AMPA (Rattus norvegicus) (UniProt P19491+P19492+P19493+P19490). As to the kind of experiment: Inhibition of Ionotropic glutamate receptor AMPA in xenopus oocytes expressing the rat cerebral cortex poly(A+) RNA. The class given is cell-based. The settings on record: Oocyte.
Experiment [4] has as its target Glutamate receptor ionotropic, NMDA 1 (Rattus norvegicus, UniProt P35439). The experiment in a line: Inhibition of [3H]- DCKA binding to NMDA receptor of rat brain membranes. In kind it is cell membranes, Membrane.

Turning to `O=Nc1c(O)nc2cc(Cl)cc(Cl)c2c1O`, the Selectivity in experiment [1] is 13. Further, the Kb in experiment [2] worked out at 47 nM; in experiment [3], 600 nM.
The term IC50 denotes the concentration that gives 50% inhibition. In experiment [4], `Oc1nc2ccc(Cl)cc2nc1O` came in with a half-inhibitory concentration (IC50) of 1800 nM. Besides, the Kb in experiment [2] amounted to 2600 nM.
On to `Cc1cc(C)c2c(O)c(N=O)c(=O)[nH]c2c1`, for which the IC50 in experiment [4] turned out to be 37 nM.
The compound `Oc1nc2ccccc2nc1O` had an IC50 in experiment [4] of 9800 nM.
In turn, `O=Nc1c(O)nc2c(Cl)cccc2c1O` showed an IC50 in experiment [4] of over 100000 nM.
Compound `Oc1nc2cc(Cl)c(Cl)c(Cl)c2nc1O` yielded an IC50 in experiment [4] of 30 nM. In experiment [2], this compound showed a Kb of 82 nM.
As for `O=Nc1c(O)nc2ccccc2c1O`, in experiment [4], the IC50 is 1400 nM.
With `O=Nc1c(O)nc2ccc(Cl)c(Cl)c2c1O`, the IC50 in experiment [4] is 170 nM.
For the compound `Cc1cc(C)c2c(O)c(N=O)c(O)nc2c1`, in experiment [1], the Selectivity was 15. Moreover, the Kb in experiment [2] is 170 nM; in experiment [3] it was 2600 nM.
`O=Nc1c(O)c2c(Cl)cc(Cl)cc2[nH]c1=O` showed an IC50 in experiment [4] of 33 nM.
In experiment [4], `Oc1nc2cc(F)c(Cl)c(F)c2nc1O` had a half-inhibitory concentration (IC50) of 630 nM.
In the case of `Oc1nc2cc(Cl)c(Cl)cc2nc1O` [2,3-DIHYDROXY-6,7-DICHLOROQUINOXALINE], the IC50 in experiment [4] stood at 130 nM. This compound also returned a Kb in experiment [2] of 380 nM.
Turning to `Oc1nc2cc(Cl)cc(Cl)c2nc1O`, in experiment [4], the IC50 is 280 nM. Besides, the Kb in experiment [2] amounted to 730 nM.
In turn, `Cc1cc(C)c2nc(O)c(O)nc2c1` registered an IC50 in experiment [4] of 2100 nM.
For the compound `O=Nc1c(O)nc2cc(Cl)c(Cl)c(Cl)c2c1O`, the IC50 in experiment [4] is 7 nM. The Kb in experiment [2] was found to be 22 nM; in experiment [3], 180 nM.
Compound `O=Nc1c(O)nc2cccc(Cl)c2c1O` returned an IC50 in experiment [4] of 4400 nM.
In experiment [4], `O=Nc1c(O)c2cc(Cl)ccc2[nH]c1=O` registered an IC50 of 3400 nM.
In the case of `O=Nc1c(O)c2c(F)c(F)c(F)c(F)c2[nH]c1=O`, in experiment [4], the IC50 came to 3300 nM.
Same read-out and setting: for `O=c1[nH]c2c(F)c(F)c(F)c(F)c2[nH]c1=O` the value was 730 nM.
In the case of `O=Nc1c(O)nc2cc(Cl)ccc2c1O`, the IC50 in experiment [4] turned out to be 53 nM. In addition, the Selectivity in experiment [1] was 8.6. The Kb in experiment [2] was found to be 86 nM; in experiment [3], 740 nM.
Consider `O=Nc1c(O)c2cc(F)c(Cl)c(F)c2[nH]c1=O`, for which the half-inhibitory concentration (IC50) in experiment [4] is 910 nM.
In turn, `O=Nc1c(O)nc2cc(Cl)c(Cl)cc2c1O` displayed an IC50 in experiment [4] of 12 nM. In experiment [1], the Selectivity was 17. Moreover, the Kb is 24 nM in experiment [2] and 410 nM in experiment [3].
